One data set concerns RC‐124 cells. As to the kind of experiment: Cell growth inhibition assay (Crystal Violet), non-tumor reference. Format: cell-based, human. Conditions: RC‐124 non‐malignant kidney epithelial cells, 96 h incubation, mean ± SD of three independent experiments. How it is done:
(§1) The capability of the gold(III) complexes Au1‐5, the gold(I)‐phosphine derivatives AuP1‐5, and the gold(I)‐carbene counterparts AuC1‐5 to inhibit cell proliferation was assayed on three human tumor cell lines, namely, colorectal adenocarcinoma (HT‐29), metastatic breast adenocarcinoma (MDA‐MB‐231), and breast adenocarcinoma (MCF‐7) cells, whereas human non‐malignant kidney epithelial (RC‐124) cells were used as non‐tumor reference cell line. […]
Human non-malignant kidney epithelial (RC-124) cells were maintained in McCoy’s 5A Medium (modified to contain 1.5 mM L-glutamine and 2.2 g L-1 sodium bicarbonate; Life Technologies).
(§2) Cells were cultured at 37°C in 5% CO2 and moisture-enriched atmosphere in the respective medium […]
(Biochrom) and passaged once a week.
For experiments involving RC-124 cells, microtiter plates were pre-treated as follows. 30 µL of a 1.5% m/v sterilized gelatine solution were added to each well of flat-bottomed 96-well plates, plates were covered with their lids and incubated for 1 h at 37°C. The excess solution was then removed, wells were washed with PBS solution (pH 7.4), and new cell culture medium was added.
(§3) Cell growth inhibition assay
(§4) Stock solutions of the gold(III) complexes Au1-5, and the gold(I) complexes AuP1-5 and AuC1-5 in DMF were freshly prepared and subsequently diluted with the appropriate complete cell culture medium […]
(§5) The in vitro antiproliferative activity of the various gold complexes was determined following a modified protocol previously reported.[68] 100 µL of HT-29 cells (2.5×10^3 cells mL-1), MDA-MB-231 cells […]
(§6) in 96-well cell culture plates and incubated at 37°C in 5% CO2 humidified atmosphere (note: for RC-124, pre-treated plates were used as mentioned above). After 72 h (MDA-MB-231, MCF-7, RC-124) or 48 h (HT-29), cells were treated with the test compounds at different concentrations (0.01-50 µM) and incubated for further 72 h (HT-29) or 96 h (MDA-MB-231, MCF-7, RC-124) at 37°C. The medium was then discarded, cells were washed with fresh PBS solution and harvested, and the Crystal Violet (Sigma-Aldrich/Merck) staining assay was performed to determine cell viability. The inhibition of cell growth induced by the tested compounds was assessed by measuring the absorbance of each well at 590 nm using a Victor X4 microplate reader (Perkin Elmer). Antiproliferative data are expressed as IC50 values, that is, the concentration (μM) of the test agent inhibiting cell proliferation by 50% compared with untreated […]
(§7) control cultures. […]

In a further data set the test system is HT‐29 cells. As to the kind of experiment: Cell growth inhibition assay (Crystal Violet). Format: cell-based, human. Conditions: HT‐29 colorectal adenocarcinoma cells, 72 h incubation, mean ± SD of three independent experiments. Here is the method: as §1
(§8) high-glucose Dulbecco’s Modified Eagle’s Medium (4.5 g L-1 D-glucose, 4 mM L-glutamine, 1 mM sodium pyruvate, 1.5 g L-1 sodium bicarbonate; Life Technologies). […]
as §2
(§9) (Biochrom) and passaged once a week. […]
as §3, §4, §5, §6, §7

The subject of a further data set is MDA‐MB‐231 cells. The data set can be described thus: Cell growth inhibition assay (Crystal Violet). In kind it is cell-based, human. Conditions: MDA‐MB‐231 metastatic breast adenocarcinoma cells, 96 h incubation, mean ± SD of three independent experiments. How it is done: as §1, §8, §2, §9, §3, §4, §5, §6, §7
Data set [1] deals with MCF‐7 cells. As to the kind of experiment: Cell growth inhibition assay (Crystal Violet). Format: cell-based, human. Conditions: MCF‐7 breast adenocarcinoma cells, 96 h incubation, mean ± SD of three independent experiments. Here is the method: as §1, §8, §2, §9, §3, §4, §5, §6, §7
The test system of data set [2] is HT‐29, MDA‐MB‐231 and MCF‐7 cells. The data set can be described thus: Cell growth inhibition, stated over all tested tumor cell lines. In kind it is cell-based, human. Conditions: HT‐29, MDA‐MB‐231, MCF‐7. Here is the method:
as §1, §8, §2, §9
Cell growth inhibition assay […]
(§10) The in vitro antiproliferative activity of the various gold complexes was determined following a modified protocol previously reported.[68] […]
in 96-well cell culture plates and incubated at 37°C in 5% CO2 humidified atmosphere (note: for RC-124, pre-treated plates were used as mentioned above). […] The inhibition of cell growth induced by the tested compounds was assessed by measuring the absorbance of each well at 590 nm using a Victor X4 microplate reader (Perkin Elmer). […]

Data set [3] has as its system MCF‐7 cells. The data set can be described thus: Cellular uptake of gold (HR‐CS AAS). In kind it is cell-based, human. Conditions: 10 μM, 6 h. Here is the method: It is often assumed that the antiproliferative activity of gold complexes is strongly linked to the efficiency of their cellular uptake and internalization. Moreover, glycoconjugates are commonly believed to enter cells through GLUTs, which, as discussed earlier, are generally over‐expressed in several cancer cells. In particular, GLUT1 is crucial for the uptake of glucose by breast cancer cells, including MDA‐MB‐231 and MCF‐7.^[ [70] ^] […] The gold levels were determined by high‐resolution continuum‐source atomic absorption spectroscopy (HR‐CS AAS) after exposure to 10 μM concentration of the selected compounds over 6 h using either a high‐glucose‐contents or glucose‐free cell culture medium. […]
as §10
in 96-well cell culture plates and incubated at 37°C in 5% CO2 humidified atmosphere (note: for RC-124, pre-treated plates were used as mentioned above). […] The inhibition of cell growth induced by the tested compounds was assessed by measuring the absorbance of each well at 590 nm using a Victor X4 microplate reader (Perkin Elmer). […] Results were calculated as the mean values ± standard deviation (SD) of three […]

Data set [4] in a line: Stability in PBS by UV–Vis. Conditions: PBS pH 7.4, 37°C, 25 μM, UV–Vis over time. In kind it is physicochemical. How it is done: DMSO and DMF are solvents commonly used to prepare stock solutions of metal complexes prior to performing biological studies, especially if poorly soluble in aqueous media. […] However, to mimic a physiological‐like environment, stability studies in phosphate‐buffered saline (PBS) solution at pH 7.4 and 37°C were carried out for the various gold complexes by UV–Vis spectrophotometry.

What is called IC50 is the concentration that gives 50% inhibition. Turning to `O=C(NC1C(O)OC(CO)C(O)C1O)C1CCN(C2=[S+][Au-]([Br])([Br])[S]2)CC1` (mixture of isomers) [Au3, [Au^IIIBr2(SSC‐Inp‐GlcN1)]], the IC50 in the data set on RC‐124 cells is greater than 50 µM; in the data set on HT‐29 cells, greater than 50 µM; with MDA‐MB‐231 cells, greater than 50000 nM; with MCF‐7 cells [1], greater than 50000 nM.

Take `CCn1[c]([Au-][S]C(=S)N2CCC(C(=O)NC3C(O)OC(CO)C(O)C3O)CC2)[n+](CC)c2ccccc21` (mixture of isomers) [AuC3, [Au^I(SSC‐Inp‐GlcN1)(Et2BzImy)]]: the IC50 with HT‐29 cells was 22.7 ± 1 µM; with MDA‐MB‐231 cells, 11500 ± 600 nM; with MCF‐7 cells [1], 12300 ± 1400 nM.

`O=C(NC1C(O)OC(CO)C(O)C1O)C1CCN(C(=S)[S][Au][PH](c2ccccc2)(c2ccccc2)c2ccccc2)CC1` (mixture of isomers) [AuP3, [Au^I(SSC‐Inp‐GlcN1)(PPh3)]]: the IC50 in the data set with HT‐29 cells was 8.8 ± 1.6 µM; in the data set with MDA‐MB‐231 cells, 2400 ± 800 nM; with MCF‐7 cells [1], 2600 ± 400 nM.

Regarding `CCOC(=O)C1CCN(C2=[S+][Au-]([Br])([Br])[S]2)CC1` [Au1, [Au^IIIBr2(SSC‐Inp‐OEt)]], the IC50 with RC‐124 cells came out at 0.6 ± 0.1 µM; in the data set with HT‐29 cells, 1.2 ± 0.2 µM; in the data set on MDA‐MB‐231 cells it was 1400 ± 200 nM; with MCF‐7 cells [1] it was 800 ± 100 nM. Also, the “IC50 values over the tested tumor cell lines” value in data set [2] is recorded as “low micromolar range”.

Turning to `NC(=O)C1CCN(C2=[S+][Au-]([Br])([Br])[S]2)CC1` [Au2, [Au^IIIBr2(SSC‐Inp‐NH2)]], the concentration for half-maximal inhibition (IC50) in the data set on RC‐124 cells was 9.9 ± 0.8 µM; with HT‐29 cells, 20.1 ± 0.1 µM; with MDA‐MB‐231 cells it was 8900 ± 1100 nM; in the data set with MCF‐7 cells [1], 5100 ± 1000 nM. In addition, the “IC50 values over the tested tumor cell lines” value in data set [2] is reported as “low micromolar range”. The “Gold content (intracellular gold)” value in the data set on MCF‐7 cells [3] (with or without glucose (4.5 g L^−1) and with or without Cytochalasin B 50 μM) is “consistently similar cellular uptake values”.

With `CO[C@H]1O[C@H](CO)[C@@H](O)[C@H](O)[C@H]1NC(=O)C1CCN(C2=[S+][Au-]([Br])([Br])[S]2)CC1` [Au4, [Au^IIIBr2(SSC‐Inp‐GlcN2)]], the IC50 with RC‐124 cells is 48.2 ± 13.2 µM; with HT‐29 cells it was greater than 50 µM; in the data set with MDA‐MB‐231 cells it was greater than 50000 nM; with MCF‐7 cells [1], greater than 50000 nM. Besides, the “Gold uptake in glucose‐ and Cytochalasin B‐free medium versus conditions with glucose, Cytochalasin B, or both” value in the data set on MCF‐7 cells [3] (not statistically significant) is “slightly higher”.

Take `CO[C@H]1O[C@H](CNC(=O)C2CCN(C3=[S+][Au-]([Br])([Br])[S]3)CC2)[C@@H](O)[C@H](O)[C@H]1O` [Au5, [Au^IIIBr2(SSC‐Inp‐GlcN3)]]: the IC50 was 18.8 ± 1.7 µM with RC‐124 cells, greater than 50 µM in the data set with HT‐29 cells, greater than 50000 nM in the data set with MDA‐MB‐231 cells and greater than 50000 nM with MCF‐7 cells [1].

`CCOC(=O)CN(C)C(=S)[S][Au]=[c]1n(CC)c2ccccc2n1CC` [AuC1, [Au^I(SSC‐Sar‐OEt)(Et2BzImy)]]: the 50% inhibitory concentration (IC50) in the data set with RC‐124 cells was 0.6 ± 0.1 µM; with HT‐29 cells it was 1 ± 0.1 µM; with MDA‐MB‐231 cells, 800 ± 100 nM; in the data set on MCF‐7 cells [1], 500 ± 100 nM.

On to `CCn1[c]([Au-][S]C(=S)N2CCC(C(N)=O)CC2)[n+](CC)c2ccccc21` [AuC2, [Au^I(SSC‐Inp‐NH2)(Et2BzImy)]], for which the IC50 in the data set on HT‐29 cells worked out at 6.4 ± 1.3 µM; in the data set with MDA‐MB‐231 cells, 4700 ± 300 nM; with MCF‐7 cells [1] it was 4900 ± 600 nM.

In the case of `CCn1[c]([Au-][S]C(=S)N2CCC(C(=O)N[C@H]3[C@@H](OC)O[C@H](CO)[C@@H](O)[C@@H]3O)CC2)[n+](CC)c2ccccc21` [AuC4, [Au^I(SSC‐Inp‐GlcN2)(Et2BzImy)]], the values for the half-maximal inhibitory concentration (IC50) in the data set on HT‐29 cells, in the data set with MDA‐MB‐231 cells and in the data set with MCF‐7 cells [1] were 11.3 ± 0.4 µM, 10500 ± 400 nM and 10300 ± 300 nM, respectively.

As for `CCn1[c]([Au-][S]C(=S)N2CCC(C(=O)NC[C@H]3O[C@H](OC)[C@H](O)[C@@H](O)[C@@H]3O)CC2)[n+](CC)c2ccccc21` [AuC5, [Au^I(SSC‐Inp‐GlcN3)(Et2BzImy)]], the “Stability in PBS” value in data set [4] is listed as “major spectral changes occur soon after dissolution”. Moreover, the IC50 in the data set with HT‐29 cells came out at 11.8 ± 1.1 µM; in the data set with MDA‐MB‐231 cells, 9600 ± 1500 nM; in the data set on MCF‐7 cells [1], 10600 ± 600 nM.

With `CCOC(=O)C1CCN(C(=S)[S][Au][PH](c2ccccc2)(c2ccccc2)c2ccccc2)CC1` [AuP1, [Au^I(SSC‐Inp‐OEt)(PPh3)]], the results for the IC50 with HT‐29 cells, with MDA‐MB‐231 cells and in the data set on MCF‐7 cells [1] were 0.5 ± 0.1 µM, 600 ± 200 nM and 200 ± 100 nM, respectively.

As to `NC(=O)C1CCN(C(=S)[S][Au][PH](c2ccccc2)(c2ccccc2)c2ccccc2)CC1` [AuP2, [Au^I(SSC‐Inp‐NH2)(PPh3)]], the IC50 came to 2.9 ± 0.7 µM in the data set on HT‐29 cells, 1400 ± 300 nM in the data set with MDA‐MB‐231 cells and 1300 ± 100 nM in the data set with MCF‐7 cells [1].

For the compound `CO[C@H]1O[C@H](CO)[C@@H](O)[C@H](O)[C@H]1NC(=O)C1CCN(C(=S)[S][Au][PH](c2ccccc2)(c2ccccc2)c2ccccc2)CC1` [AuP4, [Au^I(SSC‐Inp‐GlcN2)(PPh3)]], the IC50 turned out to be 6.3 ± 0.5 µM in the data set on HT‐29 cells, 2400 ± 700 nM with MDA‐MB‐231 cells and 2400 ± 400 nM in the data set with MCF‐7 cells [1].

Turning to `CO[C@H]1O[C@H](CNC(=O)C2CCN(C(=S)[S][Au][PH](c3ccccc3)(c3ccccc3)c3ccccc3)CC2)[C@@H](O)[C@H](O)[C@H]1O` [AuP5, [Au^I(SSC‐Inp‐GlcN3)(PPh3)]], the IC50 was 6.7 ± 1.1 µM in the data set with HT‐29 cells, 2500 ± 500 nM in the data set with MDA‐MB‐231 cells and 2500 ± 400 nM in the data set with MCF‐7 cells [1].

For the origin of these results see publication PMC12631006, “Gold‐Dithiocarbamato Glycoconjugates as Potential Anticancer Agents: Design, Physico‐Chemical Characterization, and In Vitro Biological Activity” (Chembiochem, 2025).
